The subject of one data set is tubulin. The data set can be described thus: Tubulin polymerization inhibition assay (Cytoskeleton kit).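 For all read-outs here: Cell-free tubulin polymerization read by fluorescent reporter enhancement over a 30 min reaction, with the compound-free kit control taken as 100% activity and inhibition relative to it.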 As to conditions: for Tub %inh / Tub. enzyme inhibition assay %inhibition: 30 min; for Tub %inh: YB-EGY run; for Tub K.Activity: EC = 120, YB-EGY run; for IC50: read-out: Tubulin inhibition IC50 ± SEM, triplicate for each tested concentration; for Tub. enzyme inhibition assay %inhibition: codes 522-537 run; for Tub. enzyme inhibition assay K. Activity: control = 120, codes 522-537 run; for Tub. (IC50) IC50±SD: supplement raw data, lab codes.

A short description of data set [1]: Cell viability assay (MTT), normal cells. Type of data set: cell-based. As to conditions: human, MCF-10A normal mammary gland epithelial cells, four-day incubation. On the procedure:
The impact of novel compounds 10a-o and 13a-e on cell viability was examined using the MCF-10A (human mammary gland epithelial) normal cell line. The MTT test was employed to assess the cell viability of the novel compounds after a four-day incubation with MCF-10A cells ([El-Sherief et al., 2019]; [Ramadan et al., 2020]).
The effects of compounds 10a-o and 13a-e on cell viability were assessed using the human mammary gland epithelial normal cell line (MCF-10A). The MTT assay assessed the cell viability of compounds 10a-o and 13a-e following a four-day incubation with MCF-10A cells ([El-Sherief et al., 2019]; [Ramadan et al., 2020]). Check Supplementary Appendix A for additional information.
4.2. Biological evaluation
4.2.1 Cell Viability assay (MTT assay)
MTT assay was performed to investigate the effect of the synthesized compounds on mammary epithelial cells (MCF-10A). The cells were propagated in medium consisting of Ham's F-12 medium/ Dulbecco's modified Eagle's medium (DMEM) (1:1) supplemented with 10% foetal calf serum, 2 mM glutamine, insulin (10 μg/mL), hydrocortisone (500 ng/mL) and epidermal growth factor (20 ng/mL). Trypsin ethylenediamine tetra acetic acid (EDTA) was used to passage the cells after every 2-3 days. 96-well flat-bottomed cell culture plates were used to seed the cells at a density of 10^4 cells mL-1. The medium was aspirated from all the wells of culture plates after 24 h followed by the addition of synthesized compounds (in 200 μL medium to yield a final concentration of 0.1% (v/v) dimethyl sulfoxide) into individual wells of the plates.
Four wells were designated to a single compound. The plates were allowed to incubate at 37°C for 96 h. Afterwards, the medium was aspirated and 3-[4,5-dimethylthiazol-2-yl]-2,5-diphenyltetrazolium bromide (MTT) (0.4 mg/mL) in medium was added to each well and subsequently incubated for 3 h. The medium was aspirated and 150 μL dimethyl sulfoxide (DMSO) was added to each well. The plates were vortexed followed by the measurement of absorbance at 540 nm on a microplate reader. The results were presented as inhibition (%) of proliferation in contrast to controls comprising 0.1%

Molecules are shown by their SMILES.

In the case of `Cc1nc(SCC(=O)Nc2nc(-c3ccccc3)cs2)sc1C(=O)/C=C/c1ccc(Cl)cc1` [Compound 10b, (E)-2-((5-(3-(4-chlorophenyl)acryloyl)-4-methylthiazol-2-yl)thio)-N-(4-phenylthiazol-2-yl)acetamide], the Tub %inh in the data set with tubulin (conc 0.1 (unit not given)) is 5.79%; in the data set on tubulin (conc 1 (unit not given)), 23.9%; with tubulin (conc 10 (unit not given)), 41.4%; in the data set with tubulin (conc 50 (unit not given)), 64.5%; with tubulin (conc 100 (unit not given)), 88.7%. In addition, the “Tub K.Activity” value was found to be 113.05 in the data set on tubulin (conc 0.1 (unit not given)); 91.287 with tubulin (conc 1 (unit not given)); 70.334 with tubulin (conc 10 (unit not given)); 42.629 with tubulin (conc 50 (unit not given)); 13.577 in the data set on tubulin (conc 100 (unit not given)). Besides, the IC50 in the data set on tubulin was 8.75 ± 0.27 µM. The same compound registered a viability at 96 h, 50 µM in data set [1] of 91%.

Turning to `Cc1nc(SCC(=O)Nc2nc(-c3ccccc3)cs2)sc1C(=O)/C=C/c1ccc(F)cc1` [Compound 10c, (E)-2-((5-(3-(4-fluorophenyl)acryloyl)-4-methylthiazol-2-yl)thio)-N-(4-phenylthiazol-2-yl)acetamide], the Tub %inh with tubulin (conc 0.1 (unit not given)) is given as 4.47%; with tubulin (conc 1 (unit not given)) it was 12.4%; in the data set on tubulin (conc 10 (unit not given)) it was 25.6%; with tubulin (conc 50 (unit not given)), 52.5%; in the data set with tubulin (conc 100 (unit not given)), 83%. Also, the “Tub K.Activity” value in the data set on tubulin (conc 0.1 (unit not given)) was determined as 114.64; with tubulin (conc 1 (unit not given)) it was 105.09; with tubulin (conc 10 (unit not given)) it was 89.245; in the data set on tubulin (conc 50 (unit not given)), 56.999; in the data set with tubulin (conc 100 (unit not given)) it was 20.424. In addition, the IC50 in the data set with tubulin was found to be 22.5 ± 0.69 µM. Also, in data set [1], the viability at 96 h, 50 µM came out at 89%.

In the case of `COc1ccc(/C=C/C(=O)c2sc(SCC(=O)Nc3nc(-c4ccccc4)cs3)nc2C)cc1` [Compound 10e, (E)-2-((5-(3-(4-methoxyphenyl)acryloyl)-4-methylthiazol-2-yl)thio)-N-(4-phenylthiazol-2-yl)acetamide], the “Tub. enzyme inhibition assay %inhibition” value in the data set on tubulin (conc 0.01 (unit not given)) worked out at 2.57%; in the data set on tubulin (conc 0.1 (unit not given)) it was 9.6%; in the data set on tubulin (conc 1 (unit not given)), 20.4%; in the data set on tubulin (conc 10 (unit not given)), 46%; in the data set on tubulin (conc 100 (unit not given)), 83.3%. Also, the “Tub. enzyme inhibition assay K. Activity” value in the data set on tubulin (conc 0.01 (unit not given)) was 116.92; with tubulin (conc 0.1 (unit not given)), 108.49; with tubulin (conc 1 (unit not given)) it was 95.5; with tubulin (conc 10 (unit not given)) it was 64.791; in the data set with tubulin (conc 100 (unit not given)), 19.996. Also, in the data set with tubulin, the IC50 came to 15.3 ± 0.49 µM. In addition, the “Tub. (IC50) IC50±SD” value in the data set on tubulin stood at 7.77 ± 0.25 µg/mL. Further, in data set [1], the viability at 96 h, 50 µM is 92%.

As for `Cc1nc(SCC(=O)Nc2nc(-c3ccc(Cl)cc3)cs2)sc1C(=O)/C=C/c1ccc(Cl)cc1` [Compound 10g, (E)-2-((5-(3-(4-chlorophenyl)acryloyl)-4-methylthiazol-2-yl)thio)-N-(4-(4-chlorophenyl)thiazol-2-yl)acetamide], the “Tub. enzyme inhibition assay %inhibition” value in the data set with tubulin (conc 0.01 (unit not given)) turned out to be 0.65%; in the data set on tubulin (conc 0.1 (unit not given)) it was 5.24%; in the data set on tubulin (conc 1 (unit not given)), 15.3%; in the data set with tubulin (conc 10 (unit not given)), 32.3%; in the data set on tubulin (conc 100 (unit not given)), 70.5%. Moreover, the “Tub. enzyme inhibition assay K. Activity” value is on record as 119.22 with tubulin (conc 0.01 (unit not given)); 113.71 with tubulin (conc 0.1 (unit not given)); 101.63 in the data set with tubulin (conc 1 (unit not given)); 81.206 with tubulin (conc 10 (unit not given)); 35.432 with tubulin (conc 100 (unit not given)). In addition, in the data set with tubulin, the IC50 is 59.4 ± 3.78 µM. Further, in the data set on tubulin, the “Tub. (IC50) IC50±SD” value was 32.45 ± 2.07 µg/mL. The viability at 96 h, 50 µM in data set [1] came out at 89%.

With `Cc1ccc(/C=C/C(=O)c2sc(SCC(=O)Nc3nc(-c4ccc(Cl)cc4)cs3)nc2C)cc1` [Compound 10i, (E)-N-(4-(4-chlorophenyl)thiazol-2-yl)-2-((4-methyl-5-(3-(p-tolyl)acryloyl)thiazol-2-yl)thio)acetamide], the “Tub. enzyme inhibition assay %inhibition” value in the data set with tubulin (conc 0.01 (unit not given)) stood at 1.51%; in the data set with tubulin (conc 0.1 (unit not given)), 5.52%; in the data set on tubulin (conc 1 (unit not given)), 19.3%; in the data set on tubulin (conc 10 (unit not given)), 41.3%; in the data set on tubulin (conc 100 (unit not given)) it was 72.1%. Moreover, the “Tub. enzyme inhibition assay K. Activity” value with tubulin (conc 0.01 (unit not given)) is reported as 118.18; in the data set on tubulin (conc 0.1 (unit not given)), 113.37; in the data set with tubulin (conc 1 (unit not given)) it was 96.892; in the data set with tubulin (conc 10 (unit not given)) it was 70.409; in the data set on tubulin (conc 100 (unit not given)), 33.442. For the same compound, the IC50 in the data set on tubulin turned out to be 33.5 ± 1.21 µM. For the same compound, the “Tub. (IC50) IC50±SD” value in the data set on tubulin was 17.63 ± 0.64 µg/mL. In addition, the viability at 96 h, 50 µM in data set [1] stood at 91%.

Regarding `COc1ccc(/C=C/C(=O)c2sc(SCC(=O)Nc3nc(-c4ccc(Cl)cc4)cs3)nc2C)cc1` [Compound 10j, (E)-N-(4-(4-chlorophenyl)thiazol-2-yl)-2-((5-(3-(4-methoxyphenyl)acryloyl)-4-methylthiazol-2-yl)thio)acetamide], the “Tub. enzyme inhibition assay %inhibition” value came to 2.01% with tubulin (conc 0.01 (unit not given)); 7.08% in the data set on tubulin (conc 0.1 (unit not given)); 22.6% in the data set on tubulin (conc 1 (unit not given)); 45.7% in the data set on tubulin (conc 10 (unit not given)); 75.5% with tubulin (conc 100 (unit not given)). Further, the “Tub. enzyme inhibition assay K. Activity” value with tubulin (conc 0.01 (unit not given)) is on record as 117.59; with tubulin (conc 0.1 (unit not given)), 111.51; with tubulin (conc 1 (unit not given)), 92.923; in the data set on tubulin (conc 10 (unit not given)) it was 65.175; in the data set on tubulin (conc 100 (unit not given)), 29.401. The IC50 in the data set on tubulin is 20.6 ± 0.75 µM. In the data set with tubulin, the “Tub. (IC50) IC50±SD” value is 11.14 ± 0.41 µg/mL. In data set [1], this compound returned a viability at 96 h, 50 µM of 93%.

As to `Cc1ccc(-c2csc(NC(=O)CSc3nc(C)c(C(=O)/C=C/c4ccccc4)s3)n2)cc1` [Compound 10k, (E)-2-((5-cinnamoyl-4-methylthiazol-2-yl)thio)-N-(4-(p-tolyl)thiazol-2-yl)acetamide], the “Tub. enzyme inhibition assay %inhibition” value with tubulin (conc 0.01 (unit not given)) is 0.28%; with tubulin (conc 0.1 (unit not given)) it was 5.09%; in the data set with tubulin (conc 1 (unit not given)) it was 16.5%; in the data set on tubulin (conc 10 (unit not given)), 36.5%; in the data set on tubulin (conc 100 (unit not given)) it was 71.9%. The “Tub. enzyme inhibition assay K. Activity” value was found to be 119.66 with tubulin (conc 0.01 (unit not given)); 113.89 in the data set with tubulin (conc 0.1 (unit not given)); 100.23 in the data set on tubulin (conc 1 (unit not given)); 76.175 in the data set on tubulin (conc 10 (unit not given)); 33.707 in the data set with tubulin (conc 100 (unit not given)). In addition, the IC50 in the data set on tubulin stood at 47.8 ± 1.74 µM. For the same compound, the “Tub. (IC50) IC50±SD” value in the data set on tubulin amounted to 23.48 ± 0.86 µg/mL. In data set [1], this compound had a viability at 96 h, 50 µM of 90%.

As to `Cc1ccc(-c2csc(NC(=O)CSc3nc(C)c(C(=O)/C=C/c4ccc(Cl)cc4)s3)n2)cc1` [Compound 10l, (E)-2-((5-(3-(4-chlorophenyl)acryloyl)-4-methylthiazol-2-yl)thio)-N-(4-(p-tolyl)thiazol-2-yl)acetamide], the “Tub. enzyme inhibition assay %inhibition” value with tubulin (conc 0.01 (unit not given)) was determined as 1.85%; with tubulin (conc 0.1 (unit not given)), 10.9%; with tubulin (conc 1 (unit not given)) it was 24.6%; with tubulin (conc 10 (unit not given)), 49.3%; in the data set with tubulin (conc 100 (unit not given)) it was 79.5%. Besides, the “Tub. enzyme inhibition assay K. Activity” value was determined as 117.78 in the data set on tubulin (conc 0.01 (unit not given)); 106.95 in the data set with tubulin (conc 0.1 (unit not given)); 90.43 in the data set with tubulin (conc 1 (unit not given)); 60.835 in the data set on tubulin (conc 10 (unit not given)); 24.585 with tubulin (conc 100 (unit not given)). Also, the IC50 in the data set on tubulin was determined as 13.9 ± 0.51 µM. Further, the “Tub. (IC50) IC50±SD” value with tubulin turned out to be 7.331 ± 0.27 µg/mL. This compound also gave a viability at 96 h, 50 µM in data set [1] of 89%.

For the origin of these results see publication PMC12040969, “Design, synthesis, in silico studies, and apoptotic antiproliferative activity of novel thiazole-2-acetamide derivatives as tubulin polymerization inhibitors” (Frontiers in Chemistry, 2025).
